Target: T1, JAK1 (Homo sapiens, UniProt P23458)
T1 construct: purchased Thermo Fisher Scientific
Experiment: Z'-LYTE JAK1 kinase screen (Thermo Fisher Scientific)
Type: biochemical
Conditions: 1% DMSO, ATP at Km apparent; for % Inhibition 1000 nm: test compound 1000 nm (so in the source)
Description: The example compounds were screened for Jak1 activity at Thermo Fisher Scientific, using their Z′-Lyte™ protocol, as described below. Selectivity screening against other kinases can be performed following similar procedures. Z′-LYTE Assay Conditions: The Test Compounds are screened in 1% DMSO (final) in the well. Three screening concentrations (10, 100, and 1000 nM) of test compounds were used. Peptide/Kinase Mixtures: All Peptide/Kinase Mixtures are diluted to a 2× working concentration in the appropriate Kinase Buffer (For JAK1, the 2×JAK1/Tyr 06 mixture is prepared in 50 mM HEPES pH 6.5, 0.01% BRIJ-35, 10 mM MgCl2, 1 mM EGTA, 0.02% NaN3. The final 10 μL Kinase Reaction consists of 21.2-91.5 ng JAK1 and 2 μM Tyr 06 in 50 mM HEPES pH 7.0, 0.01% BRIJ-35, 10 mM MgCl2, 1 mM EGTA, 0.01% NaN3. After the 1 hour Kinase Reaction incubation, 5 μL of a 1:128 dilution of Development Reagent A is added). ATP Solution: All ATP Solutions are diluted to a 4× working concentration in Kinase Buffer (50 mM HEPES pH 7.5, 0.01% BRIJ-35, 10 mM MgCl2, 1 mM EGTA). ATP: Km apparent is previously determined using a Z′-LYTE assay. 10× Novel PKC Lipid Mix: 2 mg/ml Phosphatidyl Serine, 0.2 mg/ml DAG in 20 mM HEPES, pH 7.4, 0.3% CHAPS. For 5 mL 10× Novel PKC Lipid Mix: • 1. Add 10 mgs Phosphatidyl Serine (Avanti Polar Lipids Part #8400032C or 840039C) and 1 mg DAG (Avanti Polar Lipids Part #800811C) to a glass tube. • 2. Remove the chloroform from lipid mixture by evaporating to a clear, thin film under a stream of nitrogen. Continuous rotation of the tube, at an angle to ensure maximum surface area of the lipid solution, will promote the thinnest film. • 3. Add 5 mLs resuspension buffer, 20 mM HEPES, 0.3% CHAPS, pH 7.4, to the dried lipid mix • 4. Heat gently to 50-60° C. for 1-2 minutes and vortex in short intervals until the lipids are dissolved to a clear or slightly hazy solution. The lipids are typically in solution after 2-3 heat/vortex cycles. • 5. Cool to room temperature, aliquot into single use volumes and store at −20° C. Assay Protocol Bar-coded Corning, low volume NBS, black 384-well plate (Corning Cat. #4514) • 1. 100 nL—100× Test Compound in 100% DMSO • 2. 2.4 μL—Kinase buffer • 3. 5 μL—2× Peptide/Kinase Mixture • 4. 2.5 μL—4×ATP Solution • 5. 30-second plate shake • 6. 60-minute Kinase Reaction incubation at room temperature • 7. 5 μL—Development Reagent Solution • 8. 30-second plate shake • 9. 60-minute Development Reaction incubation at room temperature • 10. Read on fluorescence plate reader and analyze the data.

T1 sequence (P23458 whole entry): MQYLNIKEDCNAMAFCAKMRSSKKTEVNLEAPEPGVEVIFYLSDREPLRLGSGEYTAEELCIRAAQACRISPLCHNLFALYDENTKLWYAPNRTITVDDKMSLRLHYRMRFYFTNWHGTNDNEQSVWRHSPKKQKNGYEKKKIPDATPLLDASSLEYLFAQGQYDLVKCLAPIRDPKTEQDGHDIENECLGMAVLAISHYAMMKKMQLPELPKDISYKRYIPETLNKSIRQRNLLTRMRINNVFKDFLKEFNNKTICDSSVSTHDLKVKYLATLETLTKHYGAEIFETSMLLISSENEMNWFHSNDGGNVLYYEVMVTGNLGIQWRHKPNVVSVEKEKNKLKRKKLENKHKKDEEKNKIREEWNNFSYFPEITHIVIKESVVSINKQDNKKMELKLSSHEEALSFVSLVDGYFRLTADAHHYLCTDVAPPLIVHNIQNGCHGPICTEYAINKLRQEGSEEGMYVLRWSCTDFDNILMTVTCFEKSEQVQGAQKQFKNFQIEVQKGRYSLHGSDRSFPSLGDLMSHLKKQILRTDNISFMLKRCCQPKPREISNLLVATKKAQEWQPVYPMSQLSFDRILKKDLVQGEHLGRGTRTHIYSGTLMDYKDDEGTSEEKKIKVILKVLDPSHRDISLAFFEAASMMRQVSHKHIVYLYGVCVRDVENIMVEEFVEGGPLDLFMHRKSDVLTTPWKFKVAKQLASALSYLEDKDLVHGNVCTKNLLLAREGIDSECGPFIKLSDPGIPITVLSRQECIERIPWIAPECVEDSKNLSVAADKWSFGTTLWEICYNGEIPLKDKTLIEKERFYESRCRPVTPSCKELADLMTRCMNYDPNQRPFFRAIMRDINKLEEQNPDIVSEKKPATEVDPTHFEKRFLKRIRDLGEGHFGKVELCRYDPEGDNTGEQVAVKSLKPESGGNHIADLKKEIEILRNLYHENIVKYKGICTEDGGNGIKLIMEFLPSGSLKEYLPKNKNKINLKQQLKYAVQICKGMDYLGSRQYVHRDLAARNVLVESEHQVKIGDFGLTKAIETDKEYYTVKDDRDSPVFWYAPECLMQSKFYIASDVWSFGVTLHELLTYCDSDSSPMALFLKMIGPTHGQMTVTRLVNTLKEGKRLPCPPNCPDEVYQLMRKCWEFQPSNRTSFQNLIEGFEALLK

inhibition at 0.01 µM (test compound 10 nM)	inhibition at 0.1 µM (test compound 100 nM)	% Inhibition 1000 nm	% Inhibition 10 nM (test compound 10 nM, 0.01 µM)	% Inhibition 100 nM (test compound 100 nM, 0.1 µM)	SMILES
46%	85%	98%	–	–	CN(c1ncnc2[nH]ccc12)C1CC2(CC(NS(=O)(=O)CCC(F)(F)F)C2)C1 (centres unmarked) [Compound 21, 3,3,3-trifluoro-N-[2-[methyl(7H-pyrrolo[2,3-d]pyrimidin-4-yl)amino]spiro[3.3]heptan-6-yl]propane-1-sulfonamide]
76%	96%	–	–	–	CN(c1ncnc2[nH]ccc12)C1CC2(CC(CNS(C)(=O)=O)C2)C1 (centres unmarked) [Compound 22, N-((6-(methyl(7H-pyrrolo[2,3-d]pyrimidin-4-yl)amino)spiro[3.3]heptan-2-yl)methyl)methanesulfonamide]
–	–	89%	12%	52%	CNS(=O)(=O)C1CC2(CC(N(C)c3ncnc4[nH]ccc34)C2)C1 (single isomer, unassigned; enantiomer b) [Compound 27, (Enantiomer B)-N-methyl-6-[methyl(7H-pyrrolo[2,3-d]pyrimidin-4-yl)amino]spiro[3.3]heptane-2-sulfonamide]
23%	71%	94%	–	–	CC(C)S(=O)(=O)NC1CC2(C1)CC(N(C)c1ncnc3[nH]ccc13)C2 (centres unmarked) [Compound 18, N-[2-[methyl(7H-pyrrolo[2,3-d]pyrimidin-4-yl)amino]spiro[3.3]heptan-6-yl]propane-2-sulfonamide]
42%	88%	97%	–	–	CC(C)CNS(=O)(=O)C1CC2(CC(N(C)c3ncnc4[nH]ccc34)C2)C1 (centres unmarked) [Compound 7, N-isobutyl-6-[methyl(7H-pyrrolo[2,3-d]pyrimidin-4-yl)amino]spiro[3.3]heptane-2-sulfonamide]
27%	77%	95%	–	–	CN(c1ncnc2[nH]ccc12)C1CC2(CC(NS(=O)(=O)c3ccc(Cl)cc3)C2)C1 (centres unmarked) [Compound 13, 4-chloro-N-[2-[methyl(7H-pyrrolo[2,3-d]pyrimidin-4-yl)amino]spiro[3.3]heptan-6-yl]benzenesulfonamide]
71%	92%	96%	–	–	CNS(=O)(=O)C1CC2(CC(N(C)c3ncnc4[nH]ccc34)C2)C1 (centres unmarked) [Compound 1, N-methyl-6-[methyl(7H-pyrrolo[2,3-d]pyrimidin-4-yl)amino]spiro[3.3]heptane-2-sulfonamide]
52%	90%	98%	–	–	CCNS(=O)(=O)C1CC2(CC(N(C)c3ncnc4[nH]ccc34)C2)C1 (centres unmarked) [Compound 2, N-ethyl-6-[methyl(7H-pyrrolo[2,3-d]pyrimidin-4-yl)amino]spiro[3.3]heptane-2-sulfonamide]
31%	78%	95%	–	–	CN(c1ncnc2[nH]ccc12)C1CC2(CC(NS(C)(=O)=O)C2)C1 (centres unmarked) [Compound 15, N-[2-[methyl(7H-pyrrolo[2,3-d]pyrimidin-4-yl)amino]spiro[3.3]heptan-6-yl]methanesulfonamide]
37%	82%	94%	–	–	CN(c1ncnc2[nH]ccc12)C1CC2(C1)CC(S(=O)(=O)NC(C)(C)C)C2 (centres unmarked) [Compound 8, N-tert-butyl-6-[methyl(7H-pyrrolo[2,3-d]pyrimidin-4-yl)amino]spiro[3.3]heptane-2-sulfonamide]
33%	82%	97%	–	–	CN(c1ncnc2[nH]ccc12)C1CC2(CC(NS(=O)(=O)C3CCCC3)C2)C1 (centres unmarked) [Compound 20, N-[2-[methyl(7H-pyrrolo[2,3-d]pyrimidin-4-yl)amino]spiro[3.3]heptan-6-yl]cyclopentanesulfonamide]
15%	60%	90%	–	–	CN(c1ncnc2[nH]ccc12)C1CC2(CC(NS(=O)(=O)c3ccccc3Cl)C2)C1 (centres unmarked) [Compound 12, 2-chloro-N-[2-[methyl(7H-pyrrolo[2,3-d]pyrimidin-4-yl)amino]spiro[3.3]heptan-6-yl]benzenesulfonamide]
23%	75%	95%	–	–	CC(C)NS(=O)(=O)C1CC2(CC(N(C)c3ncnc4[nH]ccc34)C2)C1 (centres unmarked) [Compound 4, N-isopropyl-6-[methyl(7H-pyrrolo[2,3-d]pyrimidin-4-yl)amino]spiro[3.3]heptane-2-sulfonamide]
38%	83%	95%	–	–	CCCS(=O)(=O)NC1CC2(C1)CC(N(C)c1ncnc3[nH]ccc13)C2 (centres unmarked) [Compound 17, N-[2-[methyl(7H-pyrrolo[2,3-d]pyrimidin-4-yl)amino]spiro[3.3]heptan-6-yl]propane-1-sulfonamide]
28%	76%	96%	–	–	CCS(=O)(=O)NC1CC2(C1)CC(N(C)c1ncnc3[nH]ccc13)C2 (centres unmarked) [Compound 16, N-[2-[methyl(7H-pyrrolo[2,3-d]pyrimidin-4-yl)amino]spiro[3.3]heptan-6-yl]ethanesulfonamide]
1%	56%	92%	–	–	CN(c1ncnc2[nH]ccc12)C1CC2(CC(NS(=O)(=O)c3ccc(C(F)(F)F)cc3)C2)C1 (centres unmarked) [Compound 14, N-[2-[methyl(7H-pyrrolo[2,3-d]pyrimidin-4-yl)amino]spiro[3.3]heptan-6-yl]-4-(trifluoromethyl)benzenesulfonamide]
66%	94%	97%	–	–	CCS(=O)(=O)NCC1CC2(C1)CC(N(C)c1ncnc3[nH]ccc13)C2 (centres unmarked) [Compound 23, N-((6-(methyl(7H-pyrrolo[2,3-d]pyrimidin-4-yl)amino)spiro[3.3]heptan-2-yl)methyl)ethanesulfonamide]
27%	73%	94%	–	–	CC(C)CS(=O)(=O)NC1CC2(C1)CC(N(C)c1ncnc3[nH]ccc13)C2 (centres unmarked) [Compound 19, 2-methyl-N-[2-[methyl(7H-pyrrolo[2,3-d]pyrimidin-4-yl)amino]spiro[3.3]heptan-6-yl]propane-1-sulfonamide]
55%	92%	98%	–	–	CN(c1ncnc2[nH]ccc12)C1CC2(C1)CC(S(=O)(=O)N(C)C)C2 (centres unmarked) [Compound 29, N,N-dimethyl-6-[methyl(7H-pyrrolo[2,3-d]pyrimidin-4-yl)amino]spiro[3.3]heptane-2-sulfonamide]
13%	60%	94%	–	–	CN(c1ncnc2[nH]ccc12)C1CC2(C1)CC(S(N)(=O)=O)C2 (centres unmarked) [Compound 28, 6-[methyl(7H-pyrrolo[2,3-d]pyrimidin-4-yl)amino]spiro[3.3]heptane-2-sulfonamide]
52%	84%	97%	–	–	CN(c1ncnc2[nH]ccc12)C1CC2(C1)CC(S(=O)(=O)NC1CCCC1)C2 (centres unmarked) [Compound 10, N-cyclopentyl-6-[methyl(7H-pyrrolo[2,3-d]pyrimidin-4-yl)amino]spiro[3.3]heptane-2-sulfonamide]
4%	21%	72%	–	–	CNS(=O)(=O)C1CC2(CC(N(C)c3ncnc4[nH]cnc34)C2)C1 (centres unmarked) [Compound 24, N-methyl-6-[methyl(9H-purin-6-yl)amino]spiro[3.3]heptane-2-sulfonamide]
57%	92%	98%	–	–	CCCNS(=O)(=O)C1CC2(CC(N(C)c3ncnc4[nH]ccc34)C2)C1 (centres unmarked) [Compound 3, 6-[methyl(7H-pyrrolo[2,3-d]pyrimidin-4-yl)amino]-N-propyl-spiro[3.3]heptane-2-sulfonamide]

Source: patent US10744136B2, “Sulfonamide derivatives as JAK inhibitors” (Avista Pharma Solutions, Inc., priority 2018, dated 2020)
